Data taken from patent US20250228757A1, “SUNSCREEN COMPOUNDS AND FORMULATIONS” (Oregon State University, priority 2024, published 2025).
Entries after “also recorded” stand apart in the source; their conditions may differ. Like-named read-outs stand apart in the source and are kept apart here. One block for each compound: values may come before it.

How the values were obtained:
HaCaT cells [1] = test: Dose-response MTS viability assay without UVB; assay type: cell-based, human; settings: 48 h, 3.125-50 μM, absence of UVB irradiation
Procedure: (§1) Immortalized keratinocyte HaCaT cells (ATCC, Manassas, VA, USA) were cultured in DMEM supplemented with 5% fetal bovine serum. Human primary epidermal keratinocytes (HPEKs) (ATCC) were cultured in EpiLife medium (ThermoFisher Scientific) supplemented with Human Keratinocyte Growth Supplement (ThermoFisher Scientific). HPEKs were maintained below ten passages. Cell lines were incubated in a humidified environment at 37° C. with 5% CO2.
(§2) For viability studies, HaCaT cells were seeded 5000 cells/well in clear 96-well plates (Corning, Corning, NY, USA). After 24 h, cells were treated with MBITC or MBA at 0, 3.125, 6.25, 12.5, 25, or 50 μM and incubated with the compounds for 48 h. Viability was then determined by MTS assay using CellTiter 96® AQueous One Solution Cell Proliferation Assay (Promega Corporation, Madison, WI, USA). Absorption was measured using Cytation® 5.0 Imaging Reader (Agilent, Santa Clara, CA, USA). HPEKs were seeded 5000 cells/well into white, opaque bottom 96-well plates (Greiner Bio-One) and incubated for 48 h. HPEKs were then treated with ethanol vehicle control or a 5-point half-log serial dilution of MBA starting at 50 μM. After 48 h, CellTiter-Glo® (Promega Corporation, Madison, WI) viability assays were performed per the manufacturer's instructions, and luminescence was read using a Synergy4 (Biotek, Winooski, VT) plate reader.

[2] = system: human primary epidermal keratinocytes (HPEKs); test: Dose-response CellTiter-Glo viability assay without UVB; assay type: cell-based; settings: 48 h, up to 50 μM, absence of UVB
Procedure: as §1, §2

UVB absorption assay = assay type: physicochemical; settings: for UVB absorption: time needed to reach a 5 mJ/cm^2 dose: in ethanol, 1, 10, 25, 50 μM
Procedure: MBITC or MBA was diluted in ethanol at 0, 1, 10, 25, and 50 μM, added to separate wells of a 24-well plate (Corning, Corning, NY, USA), and irradiated with UVB light using a UV Transilluminator 2000 (Bio-Rad, Hercules, CA, USA) to reach 5 mJ/cm^2 or 10 mJ/cm^2. A Daavlin X-96 irradiance meter (Daavlin, Bryan, OH, USA) measured energy transmittance through the dish. Each well was separately irradiated, and the time was measured to reach the specified energy density.

HaCaT cells [3] = test: UV protection dose-response MTS assay; assay type: cell-based, human
Procedure: as §1
For UV protection dose-response assays, HaCaT cells were seeded 5000 cells/well into clear 96-well plates (Corning). After 24 h, cells were treated with MBITC or MBA at 0, 3.125, 6.25, 12.5, 25, or 50 µM and incubated for 12 h. Cells were washed in PBS and irradiated with 10 mJ/cm^2 UVB using a UV Transilluminator 2000. After irradiation, fresh media was added, cells incubated for 36 h, and viability was determined by MTS assay as before. HPEKs were seeded 5000 cells/well into black, opaque bottom 96-well plates (Greiner Bio-One, Monroe, NC, USA) and incubated for 48 h. Afterward, cells were treated with vehicle control or a 10-point half-log serial dilution of MBITC or MBA starting at 50 μM and incubated for 12 h. Before irradiation, the conditioned cell culture medium was re-moved from each well, retained, and PBS containing the same dose of EtOH or the compounds was added to the wells. Cells were irradiated with a 10 mJ/cm^2 dose using UVB TL 20W/12 RS M3 lights (Philips, Amsterdam, Netherlands). The dose of UVB was quantified using an IL1400A NIST Traceable Photometer (International Light, Peabody, MA, USA). Following irradiation, the PBS was aspirated from the wells, and conditioned media was added. After 36 h, CYQUANT® (ThermoFisher Scientific) assays were performed per the manufacturer's instructions, and fluorescent signal read using a Synergy4® (Biotek, Winooski, VT) plate reader. Cell counts were extrapolated from a standard curve of fluorescent signal activity vs. HPEK cell counts. Time kinetics involved the same compound and UVB treatment scheme as before, but CYQUANT® assays were performed at 24, 48, 72, or 96 h post-UVB irradiation.

[4] = system: human primary epidermal keratinocytes (HPEKs); test: UV protection CyQuant cell count assay (dose-response and time kinetics); assay type: cell-based; settings: 10 mJ/cm^2 UVB
Procedure: as §1
For UV protection dose-response assays, HaCaT cells were seeded 5000 cells/well into clear 96-well plates (Corning). After 24 h, cells were treated with MBITC or MBA at 0, 3.125, 6.25, 12.5, 25, or 50 µM and incubated for 12 h. Cells were washed in PBS and irradiated with 10 mJ/cm^2 UVB using a UV Transilluminator 2000. After irradiation, fresh media was added, cells incubated for 36 h, and viability was determined by MTS assay as before. HPEKs were seeded 5000 cells/well into black, opaque bottom 96-well plates (Greiner Bio-One, Monroe, NC, USA) and incubated for 48 h. […] The dose of UVB was quantified using an IL1400A NIST Traceable Photometer (International Light, Peabody, MA, USA). […] After 36 h, CYQUANT® (ThermoFisher Scientific) assays were performed per the manufacturer's instructions, and fluorescent signal read using a Synergy4® (Biotek, Winooski, VT) plate reader. […]

[5] = system: cyclobutane pyrimidine dimers (CPDs) in HPEKs; test: Immunocytochemistry for cyclobutane pyrimidine dimers after UVB; assay type: cell-based, human; settings: 12 h treatment, 5 mJ/cm^2 UVB
Procedure: HPEKs were cultured to 80% confluence in 6-well plates containing gelatin-coated coverslips and treated with ethanol vehicle control or MBA. After 12 h, the conditioned cell culture medium was removed, retained, and PBS containing EtOH or MBA was added to each well. Plates were then irradiated with 5 mJ/cm^2 UVB, PBS removed, conditioned media re-added, and incubated for 24 h. Cells were then fixed in 75% methanol/25% acetic acid, washed with 70% EtOH, and DNA denatured in 70 mM NaOH (in 70% EtOH). Wells were then washed 3 times with PBS and denaturation quenched with 100 mM Tris —HCl (in 70% EtOH). Cells were then blocked with 10% normal goat serum (NGS) in PBS-T and incubated overnight at 4° C. with α-thymine dimer primary antibody (1:1000, Kamiya Bio-medical, Matsumoto, Nagano, Japan) in NGS blocking buffer. […] Corrected total cellular fluorescence (CTCF) was quantified using the ImageJ software package as described previously, except only nuclear CTCF for CPD staining was quantified and nuclei were selected for ROIs using manual thresholding for each field (Carpenter et al., J Invest Dermatol 2022, 142:1903-1911). For all quantifications, cells on the edges of each field were excluded.

p-γH2A.X in HPEKs = test: Immunoblotting for p-γH2A.X after UVB; assay type: cell-based, human; settings: 5 mJ/cm^2 UVB; for p-γH2A.X reduction: 1 μM (lowest tested dose); for p-γH2A.X staining: 25 and 50 μM (higher concentrations)
Procedure: HPEKs were cultured to 80% confluence in 6-well plates and treated with ethanol vehicle control or MBA. Cells were then irradiated in the same manner as immunocytochemistry samples. After 36 h, cells were harvested by scraping into cold PBS, centrifuged, pellet resuspended in denaturing SDS lysis buffer, boiled, and sonicated as described previously (Carpenter et al., Mol Carcinog 2019, 58:1680-1690). Samples were normalized to protein content as determined by BCA Assay (ThermoFisher Scientific). SDS-PAGE was then performed using 10% gels and transferred to a 0.45 μm nitrocellulose membrane (GE Healthcare, Chicago, IL, USA). Blots were blocked for 1 h in 5% nonfat dry milk in TBS-T and incubated with α-p-γH2A.X antibody (1:1000, Cell Signaling Technology, Danvers, MA, USA) or Actin (1:2000, Bethyl Laboratories, Inc., Montgomery, TX, USA) in 5% bovine serum albumin in TBS-T overnight at 4° C. The next day, blots were incubated with HRP-conjugated Goat anti-rabbit IgG or Goat anti-mouse IgG secondary antibodies (1:2000, Calbiochem, San Diego, CA, USA) for 1 h. The immunoblots were developed using chemiluminescent reagents (GE Healthcare) and imaged with a MyECL imager (ThermoFisher Scientific).

UV spectra = assay type: physicochemical; settings: UV spectrum
Solubility = assay type: physicochemical
human skin equivalents = settings: Carpenter et al. 2018; cited from earlier work
HPEKs = settings: previous study, absence of UVB; cited from earlier work
[6] = HaCaT, 12 h treatment, 10 mJ/cm^2 UVB, MTS after 36 h

- λmax (UV spectra): 273 nm
- solubility in ethanol (Solubility): ethanol soluble
SMILES: CCCCCCCCCCCCCC/C=C\CCCC(=O)NCc1cccc(OC)c1 [MBA, (Z)—N-(3-methoxybenzyl)eicos-5-enamide]
- cytotoxicity (viability, MTS) (HaCaT cells [1]): little to no effect
- cytotoxicity (viability, CellTiter-Glo) [2]: not cytotoxic at the tested doses
- UVB absorption: time needed to reach a 5 mJ/cm^2 dose (UVB absorption assay): only showed similar activity at a single concentration of 25 μM
- cytotoxic effects in the presence of UVB light (HaCaT cells [3]; [6]): did not exhibit the same cytotoxic effects as the parental compound
- protective effect, time kinetics ([4]; incubation up to four days): did not reveal a protective effect
- prevention of UV-induced loss in proliferation (dose-response) ([4]; 12 h treatment, CyQuant): had the same effect as in HaCaT cells
- intensity of the CPD staining (CTCF) [5]: substantially decreased
- total number of CPD+ cells vs vehicle control [5]: small but significant difference
- p-γH2A.X reduction (p-γH2A.X in HPEKs): trend of reduced p-γH2A.X
- p-γH2A.X staining (p-γH2A.X in HPEKs): lack of elevated p-γH2A.X

SMILES: COc1cccc(CN=C=S)c1 [MBITC, 3-methoxybenzyl isothiocyanate]
- UVB absorption: time needed to reach a 5 mJ/cm^2 dose (UVB absorption assay): sufficient to increase the time needed to reach a 5 mJ/cm^2 dose at every tested concentration except 50 μM, where the time significantly decreased
- UVB absorption capacity, compared (UVB absorption assay; time needed to reach 5 or 10 mJ/cm^2): more UVB absorption capacity than MBA
- cytotoxic effects in the presence of UVB light (HaCaT cells [3]): displayed cytotoxic effects in the presence of UVB light
- protection from UVB-induced loss in proliferation (HaCaT cells [3]; [6]): did not reverse the loss of proliferation
- p-γH2A.X reduction (p-γH2A.X in HPEKs): less reduction; also recorded: trend of reduced p-γH2A.X
- p-γH2A.X staining (p-γH2A.X in HPEKs): trend of increased p-γH2A.X staining compared to MBA
- λmax (UV spectra): 273 nm
- UVB-induced DNA damage, proliferation, and matrix-metalloproteinase expression (human skin equivalents): reduce
- cytotoxic effects in HPEKs (HPEKs): exhibited cytotoxic effects

SMILES: COc1cccc(CCC#N)c1 [MPACN, 3-methoxybenzyl acetonitrile]
- UVB-induced DNA damage, proliferation, and matrix-metalloproteinase expression (human skin equivalents): reduce
